Assay in all cases: microscale thermophoresis
Common to all, as to type: binding

The target in one experiment is T1, GPD2 (Homo sapiens, UniProt P43304).
T1 construct: labelled with DyLight 488 for MST; docking model 1x0v is not the assayed protein
T1 sequence (P43304 43-727): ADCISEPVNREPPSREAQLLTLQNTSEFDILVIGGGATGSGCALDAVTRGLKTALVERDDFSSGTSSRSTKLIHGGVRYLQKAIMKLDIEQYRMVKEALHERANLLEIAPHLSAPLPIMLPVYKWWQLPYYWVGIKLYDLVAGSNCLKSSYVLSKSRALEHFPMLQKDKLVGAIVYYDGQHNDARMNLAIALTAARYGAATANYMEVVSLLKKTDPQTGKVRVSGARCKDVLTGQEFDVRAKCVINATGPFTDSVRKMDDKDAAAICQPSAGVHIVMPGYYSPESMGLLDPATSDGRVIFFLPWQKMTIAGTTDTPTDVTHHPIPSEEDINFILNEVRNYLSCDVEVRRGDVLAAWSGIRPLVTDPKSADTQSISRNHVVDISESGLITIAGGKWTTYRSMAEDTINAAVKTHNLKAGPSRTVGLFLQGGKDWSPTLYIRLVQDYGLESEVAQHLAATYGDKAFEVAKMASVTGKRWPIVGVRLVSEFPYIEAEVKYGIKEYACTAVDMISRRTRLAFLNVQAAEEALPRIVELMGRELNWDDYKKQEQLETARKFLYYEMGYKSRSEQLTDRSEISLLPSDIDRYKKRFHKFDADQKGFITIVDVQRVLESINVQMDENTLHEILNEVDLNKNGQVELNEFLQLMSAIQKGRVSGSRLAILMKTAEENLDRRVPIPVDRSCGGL

For the next experiment, the target named is T2, Hsp90α (Homo sapiens, UniProt P07900).
T2 construct: gene HSP90AA1; labelled with DyLight 488 for MST

In the next experiment the target is T3, GPI (Homo sapiens, UniProt P06744).
T3 construct: labelled with DyLight 488 for MST

For the next experiment, the target named is T4, PGK2 (Homo sapiens, UniProt P07205).
T4 construct: labelled with DyLight 488 for MST; docking model 2paa is not the assayed protein
T4 sequence (P07205 2-417): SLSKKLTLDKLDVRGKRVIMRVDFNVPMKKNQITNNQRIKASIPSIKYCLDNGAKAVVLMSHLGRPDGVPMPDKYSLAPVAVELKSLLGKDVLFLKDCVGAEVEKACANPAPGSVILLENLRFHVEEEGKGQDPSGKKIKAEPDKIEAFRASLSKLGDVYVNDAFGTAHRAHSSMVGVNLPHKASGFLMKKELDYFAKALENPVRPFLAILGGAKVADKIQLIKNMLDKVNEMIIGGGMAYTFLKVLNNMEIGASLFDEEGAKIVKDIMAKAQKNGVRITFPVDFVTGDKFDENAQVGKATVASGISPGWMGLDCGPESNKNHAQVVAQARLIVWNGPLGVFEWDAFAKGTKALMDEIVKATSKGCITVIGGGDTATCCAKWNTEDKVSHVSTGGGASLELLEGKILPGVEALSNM

Experimental findings from paper PMC11542786, “Isoscopoletin inhibits hepatocellular carcinoma cell proliferation via regulating glycolysis-related proteins” (PLOS ONE, 2024) are described below.

By Kd is commonly meant the constant that tells how readily two partners part at equilibrium. Higher therefore signals a looser complex.

Regarding `COc1cc2oc(=O)ccc2cc1O` [Isoscopoletin], the Kd on GPD2 was 13.4 mM; at Hsp90α, 52.2 mM; on GPI, 1.35 mM; on PGK2, 3.22 mM.
